Test results reported in US9169254B2, “Spiroimidazolone derivative” (Chugai Seiyaku Kabushiki Kaisha, priority 2009, dated 2015).

Molecular target: T1, human PTH1 receptor (Homo sapiens, UniProt Q03431)
T1 sequence (Q03431 27-593): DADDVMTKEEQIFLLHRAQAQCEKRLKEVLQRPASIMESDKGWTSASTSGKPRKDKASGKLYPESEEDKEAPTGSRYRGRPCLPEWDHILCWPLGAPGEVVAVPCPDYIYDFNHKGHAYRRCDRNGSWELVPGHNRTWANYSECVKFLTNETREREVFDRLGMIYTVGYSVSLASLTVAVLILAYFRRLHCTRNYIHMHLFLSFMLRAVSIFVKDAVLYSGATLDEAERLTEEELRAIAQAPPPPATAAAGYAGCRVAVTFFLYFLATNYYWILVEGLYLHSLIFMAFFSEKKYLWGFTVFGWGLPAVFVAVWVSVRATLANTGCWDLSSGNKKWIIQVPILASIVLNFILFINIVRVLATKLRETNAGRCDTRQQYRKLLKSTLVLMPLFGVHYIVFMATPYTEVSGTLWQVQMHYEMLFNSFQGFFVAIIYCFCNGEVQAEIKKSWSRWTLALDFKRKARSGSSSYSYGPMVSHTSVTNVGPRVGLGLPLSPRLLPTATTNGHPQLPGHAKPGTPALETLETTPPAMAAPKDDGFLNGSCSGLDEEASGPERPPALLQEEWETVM
Experiment: In vitro cAMP signal activity in HKRK-B7 cells (LLC-PK1 cells overexpressing the human PTH1 receptor)
Format: cell-based
Details: HKRK-B7 cells, compound at 1×10^−3 M

[1] = cAMP produced as percentage of that produced by hPTH(1-34) at 100 nM

SMILES	cAMP production activity (%) [1]	cAMP production activity (%) ([…], 0.1 µM)
Cc1cc(C(=O)N2CCC(O)(CO)CC2)cc(C)c1/C=C/S(=O)(=O)N1CCC2(CC1)N=C(c1ccc(F)c(C(F)(F)F)c1)NC2=O [Compound 971, 2-(4-fluoro-3-trifluoromethyl-phenyl)-8-{(E)-2-[4-(4-hydroxy-4-hydroxymethyl-piperidine-1-carbonyl)-2,6-dimethyl-phenyl]-ethenesulfonyl}-1,3,8-triaza-spiro[4.5]dec-1-en-4-one]	83%	–
Cc1cc(C(=O)N2CCC(=O)CC2)cc(C)c1/C=C/S(=O)(=O)N1CCC2(CC1)N=C(c1ccc(F)c(C(F)(F)F)c1)NC2=O [Compound 972, 8-{(E)-2-[2,6-dimethyl-4-(4-oxo-piperidine-1-carbonyl)-phenyl]-ethenesulfonyl}-2-(4-fluoro-3-trifluoromethyl-phenyl)-1,3,8-triaza-spiro[4.5]dec-1-en-4-one]	–	89%
Cc1cc(C(=O)N2CCC(F)(CO)CC2)ccc1CCS(=O)(=O)N1CCC2(CC1)N=C([C@H]1CC[C@H](CC=C(F)F)CC1)NC2=O [Compound 973, 2-[4-(3,3-Difluoro-allyl)-cyclohexyl]-8-{2-[4-(4-fluoro-4-hydroxymethyl-piperidine-1-carbonyl)-2-methyl-phenyl}-ethanesulfonyl]-1,3,8-triaza-spiro[4.5]dec-1-en-4-one]	–	112%
Cc1cc(C(=O)N2CCC(O)(CF)CC2)ccc1CCS(=O)(=O)N1CCC2(CC1)N=C([C@H]1CC[C@H](CC=C(F)F)CC1)NC2=O [Compound 974, 2-[4-(3,3-difluoro-allyl)-cyclohexyl]-8-{2-[4-(4-fluoromethyl-4-hydroxy-piperidine-1-carbonyl)-2-methyl-phenyl]-ethanesulfonyl}-1,3,8-triaza-spiro[4.5]dec-1-en-4-one]	111%	–
CCC1CCC(C2=NC3(CCN(S(=O)(=O)CCc4ccc(C(=O)N5CCN(CCF)CC5)cc4C)CC3)C(=O)N2)CC1 (stereo not shown) [Compound 975, 2-(4-Ethyl-cyclohexyl)-8-(2-{4-[4-(2-fluoro-ethyl)-piperazine-1-carbonyl]-2-methyl-phenyl}-ethanesulfonyl)-1,3,8-triaza-spiro[4.5]dec-1-en-4-one]	74%	–
CCC1CCC(C2=NC3(CCN(S(=O)(=O)CCc4ccc(C(=O)N5CCN(C6COC6)CC5)cc4C)CC3)C(=O)N2)CC1 (stereo not shown) [Compound 976, 2-(4-ethyl-cyclohexyl)-8-{2-[2-methyl-4-(4-oxetan-3-yl-piperazine-1-carbonyl)-phenyl]-ethanesulfonyl}-1,3,8-triaza-spiro[4.5]dec-1-en-4-one]	73%	–
CCCCCCCCCC1=NC2(CCN(S(=O)(=O)CCc3ccc(C(=O)N4CCCC4)cc3C)CC2)C(=O)N1 [Compound 977, 8-{2-[2-Methyl-4-(pyrrolidine-1-carbonyl)-phenyl]-ethanesulfonyl}-2-nonyl-1,3,8-triaza-spiro[4.5]dec-1-en-4-one]	80%	–
CCCCCCCCCC1=NC2(CCN(S(=O)(=O)CCc3ccc(C(=O)N4CCC4)cc3C)CC2)C(=O)N1 [Compound 978, 8-{2-[4-(azetidine-1-carbonyl)-2-methyl-phenyl]-ethanesulfonyl}-2-nonyl-1,3,8-triaza-spiro[4.5]dec-1-en-4-one]	91%	–
CCCCCCCCCC1=NC2(CCN(S(=O)(=O)CCc3ccc(C(=O)N4CC[C@@H](O)C4)cc3C)CC2)C(=O)N1 [Compound 979, 8-{2-[4-((R)-3-hydroxy-pyrrolidine-1-carbonyl)-2-methyl-phenyl]-ethanesulfonyl}-2-nonyl-1,3,8-triaza-spiro[4.5]dec-1-en-4-one]	145%	–
CCCCCCCCCC1=NC2(CCN(S(=O)(=O)CCc3c(C)cc(C(=O)N4CCCC4)cc3C)CC2)C(=O)N1 [Compound 980, 8-{2-[2,6-Dimethyl-4-(pyrrolidine-1-carbonyl)-phenyl]-ethanesulfonyl}-2-nonyl-1,3,8-triaza-spiro[4.5]dec-1-en-4-one]	85%	–
CCCCCCCCCC1=NC2(CCN(S(=O)(=O)CCc3c(C)cc(C(=O)N4CC[C@@H](O)C4)cc3C)CC2)C(=O)N1 [Compound 981, 8-{2-[4-((R)-3-hydroxy-pyrrolidine-1-carbonyl)-2,6-dimethyl-phenyl]-ethanesulfonyl}-2-nonyl-1,3,8-triaza-spiro[4.5]dec-1-en-4-one]	106%	–
CCCCCCCCCC1=NC2(CCN(S(=O)(=O)CCc3c(C)cc(C(=O)N4CCC4)cc3C)CC2)C(=O)N1 [Compound 982, 8-{2-[4-(azetidine-1-carbonyl)-2,6-dimethyl-phenyl]-ethanesulfonyl}-2-nonyl-1,3,8-triaza-spiro[4.5]dec-1-en-4-one]	96%	–
CCCCCCCCCC1=NC2(CCN(S(=O)(=O)CCc3c(C)cc(C(=O)N4CCCCC4)cc3C)CC2)C(=O)N1 [Compound 983, 8-{2-[2,6-dimethyl-4-(piperidine-1-carbonyl)-phenyl]-ethanesulfonyl}-2-nonyl-1,3,8-triaza-spiro[4.5]dec-1-en-4-one]	91%	–
CCCCCCCCCC1=NC2(CCN(S(=O)(=O)CCc3c(C)cc(C(=O)N4CCC(O)CC4)cc3C)CC2)C(=O)N1 [Compound 984, 8-{2-[4-(4-hydroxy-piperidine-1-carbonyl)-2,6-dimethyl-phenyl]-ethanesulfonyl}-2-nonyl-1,3,8-triaza-spiro[4.5]dec-1-en-4-one]	133%	–
CCCCCCCCCC1=NC2(CCN(S(=O)(=O)CCc3c(C)cc(C(=O)N4CC(O)C4)cc3C)CC2)C(=O)N1 [Compound 985, 8-{2-[4-(3-hydroxy-azetidine-1-carbonyl)-2,6-dimethyl-phenyl]-ethanesulfonyl}-2-nonyl-1,3,8-triaza-spiro[4.5]dec-1-en-4-one]	120%	–
CCCCCCCCCC1=NC2(CCN(S(=O)(=O)CCc3c(C)cc(C(=O)N4CCN(C)CC4)cc3C)CC2)C(=O)N1 [Compound 986, 8-{2-[2,6-dimethyl-4-(4-methyl-piperazine-1-carbonyl)-phenyl]-ethanesulfonyl}-2-nonyl-1,3,8-triaza-spiro[4.5]dec-1-en-4-one]	96%	–
CONC(=O)Cc1ccc(/C=C/S(=O)(=O)N2CCC3(CC2)N=C(C2CCC(C)CC2)NC3=O)c(C)c1 (stereo not shown) [Compound 988, N-methoxy-2-(3-methyl-4-{(E)-2-[2-(4-methyl-cyclohexyl)-4-oxo-1,3,8-triaza-spiro[4.5]dec-1-ene-8-sulfonyl]-vinyl}-phenyl)-acetamide]	50%	–
Cc1cc(C(=O)N2CCC(C)(O)CC2)cc(C)c1/C=C/S(=O)(=O)N1CCC2(CC1)N=C(C1CCC(CCC(F)(F)F)CC1)NC2=O (stereo not shown) [Compound 989, 8-{(E)-2-[4-(4-Hydroxy-4-methyl-piperidine-1-carbonyl)-2,6-dimethyl-phenyl]-ethenesulfonyl}-2-[4-(3,3,3-trifluoro-propyl)-cyclohexyl]-1,3,8-triaza-spiro[4.5]dec-1-en-4-one]	86%	–
Cc1cc(C(=O)N2CCC(O)(CF)CC2)cc(C)c1/C=C/S(=O)(=O)N1CCC2(CC1)N=C(C1CCC(CCC(F)(F)F)CC1)NC2=O (stereo not shown) [Compound 990, 8-{(E)-2-[4-(4-fluoromethyl-4-hydroxy-piperidine-1-carbonyl)-2,6-dimethyl-phenyl]-ethenesulfonyl}-2-[4-(3,3,3-trifluoro-propyl)-cyclohexyl]-1,3,8-triaza-spiro[4.5]dec-1-en-4-one]	87%	–
